Measured values from US9272026B2, “HLA-A*1101-restricted WT1 peptide and pharmaceutical composition comprising the same” (International Institute of Cancer Immunology, Inc., priority 2006, dated 2016).
Like-named read-outs stand apart in the source and are kept apart here. No end group written: not given here.

Columns and labels:
B-LCLs expressing WT1 [1] = system: B-LCLs expressing WT1
Experimental: (§1) The PBMCs were then seeded to a 24-well cell culture plate at the density of about 1×10^7 in RPMI 1640 medium containing 10% FCS, and a culture supernatant of B95-8 cells (cells producing EB virus) were added. They were cultured at 37° C. with 5% CO2 for about 1 month. B-LCL cells transformed with EB virus, which are B-cell tumor cells, were obtained. […] B-LCL cells were pulsed by incubating them with 20 μg/ml of WT1251, WT1279, WT1312, WT1313, WT1338, WT1378, WT1386, WT1415 or WT1436 for 2 hours, and irradiated with 80 Gy of radiation. The resulting B-LCL cells (hereinafter referred to as B-LCL cells pulsed with a WT1 peptide) were used as antigen-presenting cells for the following experiments.
(§2) 3×10^6 of autologous PBMCs were cultured in a 24-well cell culture plate in complete medium (45% RPMI, 45% AMI-V medium and 10% human AB serum) containing 20 μg/ml of WT1251, WT1279, WT1312, WT1313, WT1338, WT1378, WT1386, WT1415 or WT1436 at 37° C. with 5% CO2 for 1 week to obtain responding cells. 2×10^6 of the resulting responding cells were cocultured with 1×10^6 of the B-LCL cells pulsed with the same WT1 peptide in complete medium for 1 week (first stimulation). The PBMCs were coculutured with the B-LCL cells pulsed with the WT1 peptide three more times (second to fourth stimulations) under the conditions under which 20 IU/ml (final concentration) of IL2 was added as follows: second stimulation: two times every other day from 3 days after the initiation of stimulation; third and fourth stimulations: three times at intervals of one day from the day after the initiation of stimulation. The resulting cells were concentrated using Negative Selection Columns Gravity Feed Kit (StemSp) so that the ratio of CD8-positive T cells became about 80%, and cocultured with the B-LCL cells pulsed with the WT1 peptide (fifth stimulation). CD8-positive T cells (CTLs) obtained 5 days after the final stimulation were used for measurement of the cytotoxic activity.
(§3) The cytotoxic activity of CTLs was measured using ^51Cr release assay. CTL cells (hereinafter referred to as effector cells) were mixed at the ratio (E/T ration) of 1:1 to 30:1 in 200 μl of medium with target cells into which ^51Cr had been incorporated, and cultured in a 96-well cell culture plate at 37° C. with 5% CO2 for 4 hours. B-LCL cells pulsed with the same WT1 peptide as that used for induction of CTLs (BLCL-Ps), and B-LCL cells without pulsing with a WT1 peptide (BLCL-NPs) were used as target cells. After the culture, the supernatants were collected by centrifugation. The amounts of ^51Cr released into the supernatants were measured using a liquid scintillation counter. The cytotoxic activity (%) was determined using the following formula: (^51Cr release in supernatant of sample−Spontaneous ^51Cr release)/(Maximum ^51Cr release−Spontaneous ^51Cr release)×100 wherein Spontaneous ^51Cr release is ^51Cr release observed when the target cells into which ^51Cr had been incorporated were cultured alone under the same condition, and Maximum ^51Cr release is ^51Cr release observed when the target cells into which ^51Cr had been incorporated were completely lysed using 1% Triton X-100.
(§4) The cytotoxic activity of CTLs induced with WT1251, WT1279, WT1313, WT1338 or WT1386 against B-LCLs expressing WT1 was determined using the method described above.

[2] = system: human peripheral blood mononuclear cells having HLA-A*0201; conditions: human PBMCs having HLA-A*0201; Non-patent Document 11; cited from earlier work
B-LCLs expressing WT1 [3] = test: 51Cr release assay: cytotoxic activity of CTL against cell expressing WT1 endogenously; conditions: B-LCL into which a human WT1 gene is introduced; FIGS. 1, 2, 4, 5 and 7
Experimental: as §1, §2, §3, §4

[4] = system: B-LCL cells pulsed with the same WT1 peptide (BLCL-Ps); test: 51Cr release assay: cytotoxic activity of CTLs induced with WT1 peptide against peptide-pulsed B-LCL cells; conditions: CTLs induced with 20 μg/ml peptide; E/T ratio 1:1 to 30:1; 4 hours; FIGS. 1-9
Experimental: The PBMCs were then seeded to a 24-well cell culture plate at the density of about 1×10^7 in RPMI 1640 medium containing 10% FCS, and a culture supernatant of B95-8 cells (cells producing EB virus) were added. They were cultured at 37° C. with 5% CO2 for about 1 month. B-LCL cells transformed with EB virus, which are B-cell tumor cells, were obtained. […] B-LCL cells were pulsed by incubating them with 20 μg/ml of WT1251, WT1279, WT1312, WT1313, WT1338, WT1378, WT1386, WT1415 or WT1436 for 2 hours, and irradiated with 80 Gy of radiation. The resulting B-LCL cells (hereinafter referred to as B-LCL cells pulsed with a WT1 peptide) were used as antigen-presenting cells for the following experiments. […]
The cytotoxic activity of CTLs was measured using ^51Cr release assay. […] The amounts of ^51Cr released into the supernatants were measured using a liquid scintillation counter. The cytotoxic activity (%) was determined using the following formula: (^51Cr release in supernatant of sample−Spontaneous ^51Cr release)/(Maximum ^51Cr release−Spontaneous ^51Cr release)×100 wherein Spontaneous ^51Cr release is ^51Cr release observed when the target cells into which ^51Cr had been incorporated were cultured alone under the same condition, and Maximum ^51Cr release is ^51Cr release observed when the target cells into which ^51Cr had been incorporated were completely lysed using 1% Triton X-100.

human cells = conditions: HLA-A*2402; Non-patent Document 12; cited from earlier work
[5] = system: PBMCs from HLA-A*1101-positive healthy donors; test: Induction of CTL by WT1 peptide dimer and related peptides using PBMCs from HLA-A*1101-positive healthy donors 1-3; format: cell-based, human; conditions: FIGS. 10-14
From the text: After the culture, the supernatants were collected by centrifugation.
Abilities of the resulting WT1378 peptide dimer, WT1378 peptide, modified WT1378 peptide (G→I) (SEQ ID No: 11) and modified WT1378 peptide (G→V) (SEQ ID No: 12) as well as WT1379 peptide (SEQ ID No: 13, as disclosed in WO 2002/28414) to induce a CTL were examined using PBMCs from HLA-A*1101-positive healthy donors 1-3 according to the method as described above.

Substance: PILCGAQYR [WT1279]
- cytotoxic activity of induced CTLs against cells expressing WT1 gene endogenously (B-LCLs expressing WT1 [1]): have a cytotoxic activity against cells expressing WT1 gene endogenously

Substance: SHLQMNSRK [WT1338]
- cytotoxic activity of induced CTLs against cells expressing WT1 gene endogenously (B-LCLs expressing WT1 [1]): have a cytotoxic activity against cells expressing WT1 gene endogenously

Substance: KTCQRKFSR [WT1386]
- cytotoxic activity of induced CTLs against cells expressing WT1 gene endogenously (B-LCLs expressing WT1 [1]): have a cytotoxic activity against cells expressing WT1 gene endogenously

Substance: SLGEQQYSV (listed as Homo sapiens) [WH187 peptide]
- induction of WT1-specific CTLs [2]: WT1-specific CTLs are induced

Substance: SASETSEKR [WT1313]
- cytotoxic activity of induced CTLs against cells expressing WT1 gene endogenously (B-LCLs expressing WT1 [1]): have a cytotoxic activity against cells expressing WT1 gene endogenously

Substance: AAGSSSSVK [WT1251]
- cytotoxic activity of induced CTLs against cells expressing WT1 gene endogenously (B-LCLs expressing WT1 [3]): have a cytotoxic activity against cells expressing WT1 gene endogenously
- cytotoxic activity of induced CTLs against BLCL-Ps as compared with BLCL-NPs [4]: damage specifically BLCL-Ps

Substance: CMTWNQMNL (listed as Homo sapiens) [WT1235, WT1 peptide that matches HLA-A*2402]
- induction of WT1-specific CTLs (human cells): WT1-specific CTLs (TAK-1) are induced

Substance: WT1379 peptide: known peptide disclosed in WO 2002/28414; differs from WT1378 peptide by one amino acid in the WT1 protein sequence (GVKPFQCKT; listed as Homo sapiens)
- ability to induce a CTL [5]: much lower than that of WT1378 peptide
